Test results taken from US20080275076A1, “Pharmaceutical Compositions Comprising Sirolimus and/or an Analogue Thereof” (priority 2005, published 2008).
Read-outs that look alike come from different tables or passages of the source.

Experiments:
[1] = Solubility of sirolimus in various vehicles at 70° C. (visual inspection); type: physicochemical
Protocol: In the following table is given the solubility of sirolimus in various vehicles (please note that the solubility is determined by visual inspection): […]

[2] = cited from earlier work

- % Sirolimus dissolved 70° C. ([1]; vehicle Gelucire 44/14): 2.5%
- % Sirolimus dissolved 70° C. ([1]; vehicle Monomuls 90 35): 2.2%
- % Sirolimus dissolved 70° C. ([1]; vehicle Monomuls 90L12): 3.9%
- % Sirolimus dissolved 70° C. ([1]; vehicle Monomuls 90 L12/Rylo MD50 (10:90)): 2.5%
- % Sirolimus dissolved 70° C. ([1]; vehicle PEG 6000): 1.5%
- % Sirolimus dissolved 70° C. ([1]; vehicle PEG 6000/Poloxamer 188 (70:30)): 2.4%
- % Sirolimus dissolved 70° C. ([1]; vehicle Poloxamer 188): 1.0%
- % Sirolimus dissolved 70° C. ([1]; vehicle Rylo MD50): 1.5%
Structure (SMILES): CO[C@H]1C[C@@H]2CC[C@@H](C)[C@@](O)(O2)C(=O)C(=O)N2CCCC[C@H]2C(=O)O[C@H]([C@H](C)C[C@@H]2CC[C@@H](O)[C@H](OC)C2)CC(=O)[C@H](C)/C=C(\C)[C@@H](O)[C@@H](OC)C(=O)[C@H](C)C[C@H](C)/C=C/C=C/C=C/1C [Sirolimus]
- mean time-to-peak concentration (tmax) ([2]; multiple oral doses in renal transplant recipients): approximately 2 hours
- mean time-to-peak concentration (tmax) ([2]; oral, single dose in healthy subjects): approximately 1 hour
